Data: ChEMBL document CHEMBL3885861, “Open TG-GATES”

Species: Rattus norvegicus
Test: Open TG-GATES - Regimen: Single
Assay type: toxicity, organism-based, Sprague-Dawley
Parameters: regimen Single, gender Male, age 6 weeks
Details: in vivo, po, 10 mg/kg, route gavage, dose level Low; for APTT / Bas / Eos / Fbg / Hb / Ht / Lym / MCH / MCHC / MCV / Mono / Neu / PT / Plat / RBC / Ret / WBC: tissue Blood; for KIDNEY_L / KIDNEY_R / KIDNEY_TOTAL: tissue Kidney; for LIVER: tissue Liver; for A/G / ALP / ALT / AST / BUN / CRE / Ca / Cl / DBIL / GLC / IP / K / LDH / Na / PL / RALB / TBIL / TC / TG / TP / gamma-GTP: tissue Plasma

In the case of CCCc1cc(=O)[nH]c(=S)[nH]1 [PROPYLTHIOURACIL], the TERMINAL_BW (3 h) was 181.7 g, the APTT (3 h) was 15.5 s and the Bas (3 h) was 0%. For the same compound, the Eos (3 h) was 0.6%, the Fbg (3 h) was 202.8 mg/dL and the Hb (3 h) was 13.1 g/dL. The Ht (3 h) was 39.5%, the Lym (3 h) was 78.6% and the MCH (3 h) was 22.3 pg. It also gave an MCHC (3 h) of 33.3%, an MCV (3 h) of 66.9 fL and a Mono (3 h) of 8.6%. For the same compound, the Neu (3 h) was 12.4%, the PT (3 h) was 12.9 s and the Plat (3 h) was 102.8 x10_4/uL. For the same compound, the RBC (3 h) was 590.2 x10_4/ul, the Ret (3 h) was 10.1% and the WBC (3 h) was 92.2 x10_2/uL. It also gave a KIDNEY_L (3 h) of 0.9 g, a KIDNEY_R (3 h) of 0.9 g and a KIDNEY_TOTAL (3 h) of 1.7 g. It also gave an LIVER (3 h) of 8.4 g, an A/G (3 h) of 2 and an ALP (3 h) of 982.6 IU/L. It also gave an ALT (3 h) of 41.6 IU/L, an AST (3 h) of 72.2 IU/L and a BUN (3 h) of 12 mg/dL. The CRE (3 h) was 0.4 mg/dL, the Ca (3 h) was 11.1 mg/dL and the Cl (3 h) was 105 meq/L. The DBIL (3 h) was 0.042 mg/dL, the GLC (3 h) was 191.4 mg/dL and the IP (3 h) was 10.3 mg/dL. It also gave a K (3 h) of 4.8 meq/L, an LDH (3 h) of 92 IU/L and a Na (3 h) of 138.6 meq/L. The PL (3 h) was 122.2 mg/dL, the RALB (3 h) was 3.6 g/dL and the TBIL (3 h) was 0.3 mg/dL. The TC (3 h) was 69.2 mg/dL, the TG (3 h) was 26.6 mg/dL and the TP (3 h) was 5.5 g/dL. The gamma-GTP (3 h) was 1.4 IU/L, the TERMINAL_BW (6 h) was 174.6 g and the APTT (6 h) was 15.6 s. For the same compound, the Bas (6 h) was 0%, the Eos (6 h) was 0.8% and the Fbg (6 h) was 208.2 mg/dL. For the same compound, the Hb (6 h) was 13.7 g/dL, the Ht (6 h) was 41.1% and the Lym (6 h) was 78.4%. The MCH (6 h) was 22 pg, the MCHC (6 h) was 33.3% and the MCV (6 h) was 66 fL. The Mono (6 h) was 7.4%, the Neu (6 h) was 13.4% and the PT (6 h) was 12.8 s. For the same compound, the Plat (6 h) was 100.8 x10_4/uL, the RBC (6 h) was 622.8 x10_4/ul and the Ret (6 h) was 8.9%. For the same compound, the WBC (6 h) was 89.5 x10_2/uL, the KIDNEY_L (6 h) was 0.8 g and the KIDNEY_R (6 h) was 0.8 g. For the same compound, the KIDNEY_TOTAL (6 h) was 1.7 g, the LIVER (6 h) was 7.7 g and the A/G (6 h) was 2. The ALP (6 h) was 969.6 IU/L, the ALT (6 h) was 33 IU/L and the AST (6 h) was 64.6 IU/L. For the same compound, the BUN (6 h) was 12.4 mg/dL, the CRE (6 h) was 0.5 mg/dL and the Ca (6 h) was 10.8 mg/dL. The Cl (6 h) was 105.4 meq/L, the DBIL (6 h) was 0.05 mg/dL and the GLC (6 h) was 181.8 mg/dL. The IP (6 h) was 10.6 mg/dL, the K (6 h) was 5.2 meq/L and the LDH (6 h) was 68 IU/L. For the same compound, the Na (6 h) was 138.4 meq/L, the PL (6 h) was 125.8 mg/dL and the RALB (6 h) was 3.6 g/dL. For the same compound, the TBIL (6 h) was 0.4 mg/dL, the TC (6 h) was 68.4 mg/dL and the TG (6 h) was 34.6 mg/dL. It also gave a TP (6 h) of 5.4 g/dL, a gamma-GTP (6 h) of 1.4 IU/L and a TERMINAL_BW (9 h) of 177.5 g. It also gave an APTT (9 h) of 16 s, a Bas (9 h) of 0% and an Eos (9 h) of 1.4%. For the same compound, the Fbg (9 h) was 214.2 mg/dL, the Hb (9 h) was 13.1 g/dL and the Ht (9 h) was 39.3%. The Lym (9 h) was 67%, the MCH (9 h) was 22 pg and the MCHC (9 h) was 33.3%. It also gave an MCV (9 h) of 66 fL, a Mono (9 h) of 11.8% and a Neu (9 h) of 19.6%. For the same compound, the PT (9 h) was 12.9 s, the Plat (9 h) was 109.3 x10_4/uL and the RBC (9 h) was 596 x10_4/ul. It also gave a Ret (9 h) of 10.2%, a WBC (9 h) of 70.1 x10_2/uL and a KIDNEY_L (9 h) of 0.8 g. The KIDNEY_R (9 h) was 0.9 g, the KIDNEY_TOTAL (9 h) was 1.7 g and the LIVER (9 h) was 7.7 g. The A/G (9 h) was 2.1, the ALP (9 h) was 791.6 IU/L and the ALT (9 h) was 32 IU/L. It also gave an AST (9 h) of 59.2 IU/L, a BUN (9 h) of 12.8 mg/dL and a CRE (9 h) of 0.4 mg/dL. The Ca (9 h) was 10.7 mg/dL, the Cl (9 h) was 106.4 meq/L and the DBIL (9 h) was 0.01 mg/dL. It also gave a GLC (9 h) of 192.6 mg/dL, an IP (9 h) of 10.7 mg/dL and a K (9 h) of 5.3 meq/L. It also gave an LDH (9 h) of 84.2 IU/L, a Na (9 h) of 138.2 meq/L and a PL (9 h) of 135 mg/dL. The RALB (9 h) was 3.6 g/dL, the TBIL (9 h) was 0.4 mg/dL and the TC (9 h) was 73.4 mg/dL. It also gave a TG (9 h) of 38.8 mg/dL, a TP (9 h) of 5.4 g/dL and a gamma-GTP (9 h) of 1.4 IU/L. It also gave a TERMINAL_BW (24 h) of 193.7 g, an APTT (24 h) of 16.3 s and a Bas (24 h) of 0%. The Eos (24 h) was 1%, the Fbg (24 h) was 209.4 mg/dL and the Hb (24 h) was 13 g/dL. For the same compound, the Ht (24 h) was 39.1%, the Lym (24 h) was 77.2% and the MCH (24 h) was 21.7 pg. The MCHC (24 h) was 33.1%, the MCV (24 h) was 65.4 fL and the Mono (24 h) was 7.2%. It also gave a Neu (24 h) of 14.8%, a PT (24 h) of 12.3 s and a Plat (24 h) of 102.3 x10_4/uL. For the same compound, the RBC (24 h) was 598.4 x10_4/ul, the Ret (24 h) was 9.7% and the WBC (24 h) was 90 x10_2/uL. It also gave a KIDNEY_L (24 h) of 0.9 g, a KIDNEY_R (24 h) of 0.9 g and a KIDNEY_TOTAL (24 h) of 1.8 g. For the same compound, the LIVER (24 h) was 9.5 g, the A/G (24 h) was 2.1 and the ALP (24 h) was 908.8 IU/L. It also gave an ALT (24 h) of 39.8 IU/L, an AST (24 h) of 65.6 IU/L and a BUN (24 h) of 18.8 mg/dL. For the same compound, the CRE (24 h) was 0.5 mg/dL, the Ca (24 h) was 11 mg/dL and the Cl (24 h) was 106.6 meq/L. For the same compound, the DBIL (24 h) was 0.008 mg/dL, the GLC (24 h) was 182.6 mg/dL and the IP (24 h) was 7.3 mg/dL. For the same compound, the K (24 h) was 5.2 meq/L, the LDH (24 h) was 85.8 IU/L and the Na (24 h) was 139.4 meq/L. The PL (24 h) was 166.4 mg/dL, the RALB (24 h) was 3.8 g/dL and the TBIL (24 h) was 0.3 mg/dL. For the same compound, the TC (24 h) was 94.8 mg/dL, the TG (24 h) was 97.6 mg/dL and the TP (24 h) was 5.6 g/dL. For the same compound, the gamma-GTP (24 h) was 2.8 IU/L.
